# Activity calls are given as the source filed them. The rule behind the calls is not given here.
# Experiment: inhibitors of CD40 signaling, dose response, B cell lineage (AID 1259332);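 note: cells stimulated with CD40 ligand tCD40L; 0% = neutral control wells and -100% = positive control wells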
# Details: B cell line, CD40 signaling inhibition reporter; at 3.5 µM (top of the series)
row,Compound,"activity change, negative = inhibition"
1,Cc1ccc(-c2cc(C(=O)N3CC(C)OC(C)C3)c3ccccc3n2)o1 (centres undefined),26% (inactive)
2,COc1ccc(-c2cnc3c(c2)C(=O)N([C@H](C)CO)C[C@@H](C)[C@@H](CN(C)C(=O)Nc2c(C)noc2C)O3)cc1,-1.25% (inactive)
3,O=C(Nc1ccc(C(F)(F)F)cc1)Nc1ccc2c(c1)[C@H]1C[C@@H](CC(=O)N3CCc4ccccc4C3)O[C@H](CO)[C@H]1O2,0.714% (inactive)
4,C[C@@H]1CCCCO[C@@H](CN(C)C(=O)C2CCCCC2)[C@@H](C)CN([C@H](C)CO)C(=O)c2cc(NS(=O)(=O)c3ccccc3)ccc2O1,-0.82% (inactive)
5,C[C@H]1CN([C@@H](C)CO)C(=O)c2c(c3ccccc3n2C)-c2ccccc2CO[C@H]1CN(C)S(=O)(=O)c1ccc([N+](=O)[O-])cc1,-3.2% (inactive)
6,COc1ccc(S(=O)(=O)N(C)C[C@@H]2Oc3ccc(NC(=O)Nc4ccc(C(F)(F)F)cc4)cc3C(=O)N([C@H](C)CO)C[C@H]2C)cc1,-10.6% (inactive)
7,COc1ccccc1C(=O)Nc1ccc2c(c1)C(=O)N(C)[C@H]1CC[C@H](CC(=O)Nc3cccc(C(C)C)c3)O[C@@H]1CO2,12.5% (inactive)
8,CCCNC(=O)N1[C@H](CO)[C@H](c2ccc(-c3cccc(OC)c3)cc2)[C@@H]1C#N,12% (inactive)

# Same assay, conditions: B cell line, CD40 signaling inhibition reporter; at 10 µM (top of the series)
row,Compound,"activity change, negative = inhibition"
1,COc1cccc(OC)c1OCCNCC1COc2ccccc2O1 (centres undefined),18.1% (inactive)
2,Oc1cc(O)cc(/C=C/c2ccc(O)c(O)c2)c1,-10.7% (inactive)
3,CCCC(C)Sc1nc2c([nH]1)c(=S)n(C)c(=O)n2C (centres undefined),-8.82% (inactive)
4,CC(=O)Nc1nc2nc(-c3ccccc3)cc(-c3ccccc3)n2n1,6.86% (inactive)
5,O=C(NCc1ccccn1)C1CCCN(S(=O)(=O)c2ccccc2)C1 (centres undefined),8.97% (inactive)
6,COc1ccc2c3c(n(C)c2c1)[C@H](CO)N(C(=O)Nc1ccc(F)cc1)CC31CCN(C(=O)c2ccc3c(c2)OCO3)CC1,7.94% (inactive)
